Where “and” joins values, the source holds several entries; their conditions need not be identical. Equal entries are not always repeated.
Legend:
[1] = tested on: subjects in remission from hepatic encephalopathy (HE); assay: First study (3001): time to first breakthrough overt HE episode, rifaximin 550 mg BID vs placebo, 6 months; type: in vivo, human
Excerpt: Study 3001 was designed to continuously monitor patients to ensure the validity and completeness of HE breakthrough capture. Following screening, subjects entered a treatment period that included weekly visits and/or phone calls with patients and caregivers. Subjects were followed for the protocol specified 168 days. Complete capture of breakthrough events as well as mortality and provided assurance of the validity of the study outcome. Narratives for each subject experiencing HE breakthrough, AE's resulting in termination, SAEs or death were provided in the NDA.
Eligible subjects had 2 episodes of HE associated with chronic liver disease in the previous 6 months.
Patients had MELD scores of either […] (27%) or 11 to 18 (64%) at baseline. No patients were enrolled with a MELD score of >25. Nine percent of the patients were Child-Pugh Class C. Lactulose was concomitantly used by 91% of the patients in each treatment arm of the study. Per the study protocol, patients were withdrawn from the study after experiencing a breakthrough HE episode.
The primary endpoint was the time to first breakthrough overt HE episode. A breakthrough overt HE episode was defined as a marked deterioration in neurological function and an increase of Conn score to Grade ≧2. In patients with a baseline Conn score of 0, a breakthrough overt HE episode was defined as an increase in Conn score of 1 and asterixis grade of 1.
An efficacy endpoint was the time to first breakthrough overt HE episode. A breakthrough overt HE episode was defined as an increase of Conn score to Grade ≧2 (e.g., 0 or 1 to ≧2) or an increase in Conn and asterixis score of 1 grade each for those subjects who entered the study with a Conn score of 0. Time to breakthrough overt HE episode was the duration from time of first dose of study drug to the first breakthrough overt HE episode. […] Subjects who terminated early for reasons other than breakthrough overt HE were contacted at 6 months from randomization to determine if subjects had experienced a breakthrough overt HE episode or other outcome (e.g., mortality status); and, if the subject had no breakthrough overt HE event prior to contact, he/she was censored at the time of contact. […] Subjects in the study had ≧2 episodes of overt HE equivalent to Conn score ≧2 within 6 months prior to screening (i.e., subjects had documented recurrent, overt HE). At the baseline assessment, subjects were in remission with a Conn score of 0 or 1. A breakthrough overt HE episode, as defined above, was a marked deterioration in neurological function.
Presented herein are the results of the first study and second study. […] The primary efficacy endpoint was the time to breakthrough overt HE. Breakthrough overt HE was defined as an increase of Conn score to Grade ≧2 (e.g., 0 or 1 to ≧2) or an increase in Conn and asterixis score of 1 grade each for those subjects who entered the study with a Conn score of 0. Subjects discontinued from the study at the time of breakthrough overt HE episode. After participation in the first study, subjects had the option to enroll in the open-label, treatment-extension study (the second study).
FIG. 1 illustrates Kaplan-Meier estimates of time to first breakthrough overt HE episode by treatment group in the ITT population. Table 18 presents Kaplan-Meier estimates of the proportions of subjects who experienced breakthrough overt HE over the course of the Treatment Period and results of statistical analyses. […] Subjects who terminated early for reasons other than breakthrough overt HE (e.g., liver transplant, AE, subject request) were contacted at 6 months from date of randomization to determine if subjects had experienced a breakthrough overt HE episode or other outcome (e.g., mortality status). Subjects without breakthrough overt HE were censored at the time of contact or death, whichever was earlier.

Campylobacter jejuni = assay: Travelers' diarrhea Study 2: fever/blood in stool, Campylobacter jejuni; parameters: species or system human; settings: in vivo
Method: One study was conducted at clinical sites in Mexico, Guatemala, and Kenya (Study 1). The other study was conducted in Mexico, Guatemala, Peru, and India (Study 2). Stool specimens were collected before treatment and 1 to 3 days following the end of treatment to identify enteric pathogens. The predominant pathogen in both studies was Escherichia coli.
The results of Study 2 supported the results presented for Study 1. […] These subjects had lower clinical cure rates than those without fever or blood in the stool at baseline. Many of the patients with fever and/or blood in the stool (dysentery-like diarrheal syndromes) had invasive pathogens, primarily Campylobacter jejuni, isolated in the baseline stool.
In addition to not being different from placebo, the microbiologic eradication rates for subjects with Campylobacter jejuni isolated at baseline were much lower than the eradication rates seen for Escherichia coli.

cytochrome P450 2C19 = target: T1, cytochrome P450 2C19 (Homo sapiens, UniProt P33261); assay: In vitro cytochrome P450 inhibition; type: in vitro ADME; settings: 2 to 200 ng/mL
T1 construct: from tissue; host or cells: human liver fractions
T1 sequence (P33261 whole entry): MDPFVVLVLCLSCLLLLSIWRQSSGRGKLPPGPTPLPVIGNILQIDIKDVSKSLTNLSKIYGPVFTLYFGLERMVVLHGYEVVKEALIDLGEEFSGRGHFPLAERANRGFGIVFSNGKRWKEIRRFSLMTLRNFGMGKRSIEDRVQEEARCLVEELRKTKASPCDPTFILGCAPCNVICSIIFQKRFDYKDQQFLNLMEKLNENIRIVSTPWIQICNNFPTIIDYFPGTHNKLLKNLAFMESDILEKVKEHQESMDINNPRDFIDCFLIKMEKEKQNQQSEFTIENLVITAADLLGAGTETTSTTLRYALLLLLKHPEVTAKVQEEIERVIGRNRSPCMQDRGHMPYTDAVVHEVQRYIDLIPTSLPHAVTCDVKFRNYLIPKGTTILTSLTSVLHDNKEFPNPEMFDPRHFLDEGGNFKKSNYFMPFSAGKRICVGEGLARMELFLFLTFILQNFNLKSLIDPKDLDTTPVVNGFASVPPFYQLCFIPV

CYP3A4 = target: T2, CYP3A4 (Homo sapiens, UniProt P08684); assay: In vitro cytochrome P450 inhibition; type: in vitro ADME; settings: 2 to 200 ng/mL
T2 construct: from tissue; host or cells: human liver fractions
T2 sequence (P08684 whole entry): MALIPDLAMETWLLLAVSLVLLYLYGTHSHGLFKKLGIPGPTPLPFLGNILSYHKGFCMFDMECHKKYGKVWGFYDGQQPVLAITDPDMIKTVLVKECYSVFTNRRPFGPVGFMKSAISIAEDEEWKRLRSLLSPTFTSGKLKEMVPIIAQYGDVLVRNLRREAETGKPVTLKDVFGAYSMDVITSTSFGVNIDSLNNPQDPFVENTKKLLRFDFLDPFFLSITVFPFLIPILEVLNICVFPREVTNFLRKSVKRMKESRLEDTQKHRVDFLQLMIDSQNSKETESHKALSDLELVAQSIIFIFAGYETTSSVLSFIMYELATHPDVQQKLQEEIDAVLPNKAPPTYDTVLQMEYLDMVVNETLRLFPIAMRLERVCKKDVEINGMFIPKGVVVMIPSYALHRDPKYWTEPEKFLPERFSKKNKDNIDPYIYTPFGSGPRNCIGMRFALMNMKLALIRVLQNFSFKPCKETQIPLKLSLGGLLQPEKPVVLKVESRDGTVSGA

rat hepatocyte = type: cell-based
in vivo = settings: rat
Method: (§1) However, plasma drug levels were not measured in these studies. […] The maximum plasma AUC0-8 hr values from the 6 month rat and 9 month dog toxicity studies (range: 42-127 ng·h/mL) was lower than the maximum plasma AUC0-8 hr values in cirrhotic patients (range: 19-306 ng·h/mL).

rats = assay: in vivo; settings: rat
Method: as §1

patients with HE [2] = type: in vivo, human
Excerpt: Total number of hospitalizations, duration of hospitalizations, HE endpoints, and cost of therapy were compared between the 2 treatment regimens.

[3] = tested on: liver transplant patients who presented with HE; assay: Chart review of 39 liver transplant patients with HE; type: in vivo, human
patients with HE [4] = settings: rifaximin 1200 mg/day, neomycin 3 g/day; cited from earlier work
clinical = settings: male, human, in vivo
in vitro = settings: human, plasma

SMILES: CO[C@H]1/C=C/O[C@@]2(C)Oc3c(C)c(O)c4c(O)c(c5c(nc6cc(C)ccn65)c4c3C2=O)NC(=O)/C(C)=C\C=C\[C@H](C)[C@H](O)[C@@H](C)[C@@H](O)[C@@H](C)[C@H](OC(C)=O)[C@@H]1C [rifaximin, (2S,16Z,18E,20S,21S,22R,23R,24R,25 S,26S,27S,28E)-5,6,21,23,25-pentahydroxy-27-methoxy-2,4,11,16,20,22,24,26-octamethyl-2,7-(epoxypentadeca-[1,11,13]trienimino)benzofuro[4,5-e]pyrido[1,2-á]-benzimidazole-1,15(2H)-dione,25-acetate]
- reduction in risk of breakthrough overt HE vs placebo, adjusted for prognostic factors ([1]; 550 mg BID): 60%
- reduction in risk of breakthrough overt HE vs placebo ([1]; 550 mg BID, 6-month treatment): 58% and 57.9%
- subjects with breakthrough overt HE episodes ([1]; 550 mg BID, 6 months): 22%
- subjects with breakthrough overt HE episodes ([1]; 550 mg BID, up to Day 170): 31 of 140
- Survival ([1]; N = 140; days: r10 [0-28), r11 [28-56), r12 [56-84), r13 [84-140), r14 [140-168), r15 >=168): 1.0000 and 0.9071 and 0.8783 and 0.8344 and 0.7820 and 0.7740
- time to first breakthrough overt HE by region ([1]; North America versus Russia): highly significant protective effect
- Survival ([1]; by Baseline MELD Score Level, N = 11, days r10-r15 as E1301): 1.0000 and 0.9091 and 0.6364
- Survival ([1]; by Baseline MELD Score Level, N = 85, days r10-r15 as E1201): 1.0000 and 0.9059 and 0.8822 and 0.8459 and 0.7713 and 0.7580
- Survival ([1]; by Prior Lactulose Use, N = 123, days r10-r15 as E801): 1.0000 and 0.9024 and 0.8696 and 0.8278 and 0.7678 and 0.7586
- Survival ([1]; by Prior Lactulose Use, N = 127, days r11-r21 as E1401): 1.0000 and 0.9055 and 0.8737 and 0.8252 and 0.7754 and 0.7666
- patients experiencing a Conn Score of >=2 ([1]; component of breakthrough HE): 20%
- patients with worsening of Conn and asterixis grade of 1 each ([1]; component of breakthrough HE): 2%
- rate of breakthrough HE episodes adjusted for exposure ([1]; first study rifaximin group): 0.62 events/PEY
- patients with zero events over 6 months ([1]; in vivo): 78%
- time to breakthrough HE events vs placebo (FIG. 2) ([1]; in vivo): increased time to breakthrough HE events
- clinical cure rate, Campylobacter jejuni as sole pathogen at baseline (Campylobacter jejuni): 23.5%
- effectiveness in travelers' diarrhea due to Campylobacter jejuni (Campylobacter jejuni): not effective
- inhibition of 2C19 (cytochrome P450 2C19): did not inhibit
- inhibition of CYP3A4 (CYP3A4): did not inhibit
- genotoxicity (rat hepatocyte): not genotoxic
- AUC(0-t) (in vivo): 42 to 127 ng·h/mL
- toxic effects (rats): negligible toxic effects
- patients with Conn scores of 3 or 4 (patients with HE [2]; end of treatment period): 6%
- days hospitalized (patients with HE [2]; human, in vivo): 2.5 days
- hospitalizations due to HE, cost, HE endpoints vs lactulose (patients with HE [2]; human, in vivo): dramatically reduced
- patients with asterixis at end of treatment period (patients with HE [2]; human, in vivo): 63%
- hospitalizations (patients with HE [2]; rifaximin 400 mg 3 times/day, lactulose 30 mL twice daily): 0.5
- hospitalizations reported ([3]; 15 rifaximin, 24 lactulose patients): 3
- average length of stay ([3]; human, in vivo): 3.5 days
- efficacy in patients with HE (patients with HE [4]): comparable efficacy
- AUC(0-t) (clinical): 19.5 ± 16.5 ng·h/mL
- Cmax (clinical): 4.3 ± 2.8 ng/mL
- Tmax (clinical): 1.25 h
- fraction unbound (in vitro): 0.447

Source: patent US9629828B2, “Methods of treating traveler's diarrhea and hepatic encephalopathy” (priority 2008, dated 2017)
